Reference: ChEMBL document CHEMBL1201862, “PubChem BioAssay data set” (2004)
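Compound exposure: 48 hours, 5 concentrations, 96-well plates. GI50 is the concentration that inhibits growth by half.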 Activity calls are given as the source filed them. Rule as the data show it: active = GI50 up to about 1.1 µM and inactive = higher.

Experiments:
Test in all cases: NCI tumour cell line growth inhibition, 48 h
HL-60 = system: HL-60
A498 = system: A498
IGROV-1 = system: IGROV-1
SK-MEL-28 = system: SK-MEL-28
CCRF-CEM = system: CCRF-CEM
NCI-H226 = system: NCI-H226
ACHN = system: ACHN
SF-295 = system: SF-295
RPMI-8226 = system: RPMI-8226
NCI-H460 = system: NCI-H460
SF-268 = system: SF-268
SN12C = system: SN12C
SW-620 = system: SW-620
Malme-3M = system: Malme-3M
COLO 205 = system: COLO 205
HCT-15 = system: HCT-15
U-251 = system: U-251

Compound | GI50 (HL-60) | GI50 (A498) | GI50 (IGROV-1) | GI50 (SK-MEL-28) | GI50 (CCRF-CEM) | GI50 (NCI-H226) | GI50 (ACHN) | GI50 (SF-295) | GI50 (RPMI-8226) | GI50 (NCI-H460) | GI50 (SF-268) | GI50 (SN12C) | GI50 (SW-620) | GI50 (Malme-3M) | GI50 (COLO 205) | GI50 (HCT-15) | GI50 (U-251)
CC1=Nc2c(ccc3c2C(=O)c2ccccc2C3=O)NC(c2cccc3c2CCC3)C1 (stereo not given) | 1.58 µM (inactive) | > 67.3 µM (inactive) | 10.3 µM (inactive) | > 100 µM (inactive) | 0.612 µM (active) | > 66.2 µM (inactive) | 25.3 µM (inactive) | > 100 µM (inactive) | > 100 µM (inactive) | 47.8 µM (inactive) | > 100 µM (inactive) | > 100 µM (inactive) | > 100 µM (inactive) | > 100 µM (inactive) | > 100 µM (inactive) | 18.7 µM | > 100 µM (inactive)
CCC(C)(C)NS(=O)(=O)c1ccccc1 | > 100 µM (inactive) | > 100 µM (inactive) | > 100 µM (inactive) | > 100 µM (inactive) | > 100 µM (inactive) | > 10 µM (inactive) | > 100 µM (inactive) | > 100 µM (inactive) | > 100 µM (inactive) | > 100 µM (inactive) | – | – | > 100 µM (inactive) | > 100 µM (inactive) | – | > 100 µM | > 100 µM (inactive)
COc1ccc(NC(=O)C(=O)C2NC(=S)NC2=O)c(OC)c1 (stereo not given) | > 100 µM (inactive) | > 100 µM (inactive) | > 100 µM (inactive) | > 100 µM (inactive) | > 10 µM (inactive) | > 100 µM (inactive) | > 100 µM (inactive) | > 100 µM (inactive) | > 100 µM (inactive) | > 100 µM (inactive) | > 100 µM (inactive) | > 100 µM (inactive) | > 100 µM (inactive) | > 100 µM (inactive) | > 100 µM (inactive) | > 100 µM | > 100 µM (inactive)
CC(C)CCC[C@@H](C)C1CCC2[C@@H]3CC=C4C[C@@H](C(=O)NCCN(C)C)CC[C@]4(C)C3CC[C@@]21C (stereo not given in full) | 45.8 µM (inactive) | 32.5 µM (inactive) | 31.1 µM (inactive) | 35.2 µM (inactive) | 23.8 µM (inactive) | 19.9 µM (inactive) | 35.8 µM (inactive) | 44.4 µM (inactive) | 19.8 µM (inactive) | 32.9 µM (inactive) | 36 µM (inactive) | 19.4 µM (inactive) | 30 µM (inactive) | 28.9 µM (inactive) | 19.5 µM (inactive) | 19 µM | 30 µM (inactive)
CCOc1ccc(/C=C(\Cl)c2ccc(OC)cc2)cc1 | 47.6 µM (inactive) | 25.2 µM (inactive) | > 100 µM (inactive) | > 100 µM (inactive) | > 100 µM (inactive) | > 100 µM (inactive) | > 100 µM (inactive) | > 100 µM (inactive) | > 100 µM (inactive) | – | > 100 µM (inactive) | > 100 µM (inactive) | > 100 µM (inactive) | > 100 µM (inactive) | > 100 µM (inactive) | > 100 µM | > 100 µM (inactive)
CCCC(OCC)(OCC)OCC | > 100 µM (inactive) | > 100 µM (inactive) | > 100 µM (inactive) | > 100 µM (inactive) | > 100 µM (inactive) | > 100 µM (inactive) | > 100 µM (inactive) | > 100 µM (inactive) | > 100 µM (inactive) | > 100 µM (inactive) | > 100 µM (inactive) | > 100 µM (inactive) | – | > 100 µM (inactive) | > 100 µM (inactive) | > 100 µM | > 100 µM (inactive)
CC(=O)OC1CC2C(C)(C)C(=O)C=C[C@]2(C)C2CCC3(C)C(c4ccoc4)C(=O)[C@H]4O[C@]43[C@]12C (stereo not given in full) | 20.2 µM (inactive) | 20.3 µM (inactive) | 25.5 µM (inactive) | 15.5 µM (inactive) | 15.5 µM (inactive) | 23.7 µM (inactive) | 17.9 µM (inactive) | – | 15.9 µM (inactive) | 17.4 µM (inactive) | 38.9 µM (inactive) | 23.3 µM (inactive) | 28.5 µM (inactive) | 16.1 µM (inactive) | > 100 µM (inactive) | 15.1 µM | 18.6 µM (inactive)
NC(=S)NNC(=O)/C(=C/c1ccc(/C=C(\NC(=O)c2ccccc2)C(=O)NNC(N)=S)cc1)NC(=O)c1ccccc1 | 15.6 µM (inactive) | > 100 µM (inactive) | > 79.3 µM (inactive) | > 100 µM (inactive) | 34.3 µM (inactive) | > 100 µM (inactive) | > 100 µM (inactive) | > 100 µM (inactive) | 32.1 µM (inactive) | > 100 µM (inactive) | > 100 µM (inactive) | > 79.6 µM (inactive) | > 81.8 µM (inactive) | > 100 µM (inactive) | > 100 µM (inactive) | > 100 µM | 85.7 µM (inactive)
CN(C)C(=S)/N=c1\ss/c(=N/c2ccccc2)n1C | > 100 µM (inactive) | 28.9 µM (inactive) | > 100 µM (inactive) | 64.3 µM (inactive) | > 100 µM (inactive) | > 100 µM (inactive) | > 100 µM (inactive) | 75.9 µM (inactive) | > 100 µM (inactive) | > 100 µM (inactive) | 27.2 µM (inactive) | > 100 µM (inactive) | > 100 µM (inactive) | 40.5 µM (inactive) | – | > 100 µM | 46.7 µM (inactive)
Clc1cc(Cc2cc(Cl)c(Cl)c3c2OCOC3)c2c(c1Cl)COCO2 | 93.1 µM (inactive) | 28.4 µM (inactive) | 40.6 µM (inactive) | > 100 µM (inactive) | 30.1 µM (inactive) | 28.1 µM (inactive) | 32.4 µM (inactive) | 26.2 µM (inactive) | 33.4 µM (inactive) | 43.8 µM (inactive) | > 100 µM (inactive) | 58.6 µM (inactive) | > 100 µM (inactive) | 40.6 µM (inactive) | 70 µM (inactive) | > 100 µM | 29.1 µM (inactive)
N#C/C(c1nc2ccccc2[nH]1)=c1\s/c(=C/c2ccccc2)c(=O)n1-c1ccccc1 | > 100 µM (inactive) | 65.5 µM (inactive) | 2.9 µM (inactive) | > 100 µM (inactive) | 98.9 µM (inactive) | > 100 µM (inactive) | > 100 µM (inactive) | – | > 100 µM (inactive) | 65.2 µM (inactive) | > 100 µM (inactive) | > 100 µM (inactive) | > 100 µM (inactive) | > 100 µM (inactive) | > 100 µM (inactive) | > 100 µM | > 100 µM (inactive)
C[C@]12C=CC(=O)C=C1CC[C@H]1[C@@H]3C[C@@H](O)[C@](O)(C(=O)CO)[C@@]3(C)C[C@H](O)[C@@]12F [TRIAMCINOLONE] | > 100 µM (inactive) | > 100 µM (inactive) | > 100 µM (inactive) | > 100 µM (inactive) | 1.4 µM (inactive) | > 100 µM (inactive) | > 100 µM (inactive) | > 100 µM (inactive) | 11 µM (inactive) | > 100 µM (inactive) | > 100 µM (inactive) | > 100 µM (inactive) | > 100 µM (inactive) | > 100 µM (inactive) | > 100 µM (inactive) | > 100 µM | > 100 µM (inactive)
O=C(CSc1nnc(Cc2ccccc2)o1)Nc1ccccc1Cl | > 100 µM (inactive) | > 100 µM (inactive) | > 100 µM (inactive) | > 100 µM (inactive) | > 100 µM (inactive) | > 100 µM (inactive) | > 100 µM (inactive) | > 100 µM (inactive) | > 100 µM (inactive) | > 100 µM (inactive) | > 100 µM (inactive) | > 100 µM (inactive) | > 100 µM (inactive) | > 100 µM (inactive) | > 100 µM (inactive) | > 100 µM | > 100 µM (inactive)
CCC(C)C(N)C(=O)NC(CC(N)=O)C(=O)NC(CC(C)C)C(=O)NC(CCCCN)C(=O)NC(C)C(=O)NC(CC(C)C)C(=O)NC(C)C(=O)NC(C)C(=O)NC(CC(C)C)C(=O)NC(C)C(=O)NC(CCCCN)C(=O)NC(CCCCN)C(=O)NC(C(=O)NC(CC(C)C)C(N)=O)C(C)CC (stereo not given) | 2.74 µM (inactive) | 17.9 µM (inactive) | 17.8 µM (inactive) | 8.59 µM (inactive) | 6.46 µM (inactive) | 14.5 µM (inactive) | 14 µM (inactive) | 19.8 µM (inactive) | – | 9.82 µM (inactive) | 6.47 µM (inactive) | 13.6 µM (inactive) | 20.4 µM (inactive) | 5.98 µM (inactive) | 16.1 µM (inactive) | 16.6 µM | 16.4 µM (inactive)
Cc1cc(O)c2c(c1)OC1(C)CCC3C(C)(C)CCCC34COC2C14 (stereo not given) | 16.6 µM (inactive) | 13.2 µM (inactive) | 19.7 µM (inactive) | – | 20 µM (inactive) | 14 µM (inactive) | 12.7 µM (inactive) | 15.1 µM (inactive) | > 10 µM (inactive) | 16.4 µM (inactive) | 13.6 µM (inactive) | 16.7 µM (inactive) | 15.5 µM (inactive) | 13.3 µM (inactive) | 14.4 µM (inactive) | – | –
O=[N+]([O-])c1ccc(OCCNc2cccc3ccccc23)cc1 | – | > 100 µM (inactive) | > 100 µM (inactive) | > 100 µM (inactive) | 38.2 µM (inactive) | > 100 µM (inactive) | > 100 µM (inactive) | > 100 µM (inactive) | 24.7 µM (inactive) | 77.6 µM (inactive) | > 100 µM (inactive) | > 100 µM (inactive) | 57.1 µM (inactive) | > 100 µM (inactive) | > 100 µM (inactive) | 9.73 µM | 94.6 µM (inactive)
COc1ccc(-c2cc(-c3cc(C)ccc3O)nc(O)n2)cc1 | > 100 µM (inactive) | 74.6 µM (inactive) | > 100 µM (inactive) | > 100 µM (inactive) | > 100 µM (inactive) | > 100 µM (inactive) | 42.8 µM (inactive) | 41 µM (inactive) | > 100 µM (inactive) | > 100 µM (inactive) | 80.9 µM (inactive) | > 100 µM (inactive) | > 100 µM (inactive) | > 100 µM (inactive) | > 100 µM (inactive) | – | 30.7 µM (inactive)
